Assay results published in patent US8247211B2, “Glycopeptide antibiotics” (American Cyanamid Company, priority 2001, dated 2012).
≈ marks a conversion by molar mass, not a printed value.

What was measured:
Assay in all cases: In vitro antibacterial evaluation: minimum inhibitory concentration (MIC), broth dilution method
Format in all cases: cell-based
Enterococcus sp. = system: Enterococcus sp.
In short: (§1)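 Following NCCLS approved standard M7-A2, compounds are serially diluted from 64 to 0.06 μg/mL in Muller-Hinton II […] and inoculated at 5×10^5 CFU/mL; the MIC is the minimum concentration at which growth is inhibited.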

Escherichia coli = system: Escherichia coli
In short: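 Inoculum: 5×10^5 CFU/mL. Range: 64-0.06 μg/mL. Medium: Muller-Hinton II […]; NCCLS M7-A2 broth dilution. Endpoint: lowest concentration inhibiting growth. Strains include methicillin-, penicillin- and/or vancomycin-resistant clinical isolates.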

Staphylococcus sp. = details: broth dilution, 18 hours at 35° C.
In short: as §1

Streptococcus sp. = system: Streptococcus sp.
In short: as §1

[1] = broth dilution, inoculum 5×10^5 CFU/mL, 18 hours at 35° C.

CC(c1ccccc1)C1NC(=O)CNC(=O)C(CO)NC(=O)C(C(O)C2CNC(=N)N2C2OC(CO)C(O)C(O)C2O)NC(=O)C(C(O)C2CNC(=N)N2)NC(=O)C(Cc2ccc(OC3OC(CO)C(OC4OC5COC(c6ccc(C=Cc7ccccc7)cc6)OC5C(O)C4O)C(O)C3O)cc2)NC1=O (stereo not drawn) [Example 172]
MIC Enterococcus avium (GC 4558) (Enterococcus sp.; [1]): 4 mg/L (≈ 2.69 µM)
MIC Enterococcus faecalis (ATCC 29212) (Enterococcus sp.; [1]): 8 mg/L (≈ 5.39 µM)
MIC Enterococcus faecalis (GC 2242) (Enterococcus sp.; [1]): 4 mg/L (≈ 2.69 µM)
MIC Enterococcus faecalis (GC 2691) (Enterococcus sp.; [1]): 4 mg/L (≈ 2.69 µM)
MIC Enterococcus faecalis (GC 3059) (Enterococcus sp.; [1]): 8 mg/L (≈ 5.39 µM)
MIC Enterococcus faecalis (GC 4552) (Enterococcus sp.; [1]): 8 mg/L (≈ 5.39 µM)
MIC Enterococcus faecalis (GC 4553) (Enterococcus sp.; [1]): 4 mg/L (≈ 2.69 µM)
MIC Enterococcus faecalis (GC 4554) (Enterococcus sp.; [1]): 4 mg/L (≈ 2.69 µM)
MIC Enterococcus faecalis (GC 6189) (Enterococcus sp.; [1]): 2 mg/L (≈ 1.35 µM)
MIC Enterococcus faecium (GC 2243) (Enterococcus sp.; [1]): 8 mg/L (≈ 5.39 µM)
MIC Enterococcus faecium (GC 4556) (Enterococcus sp.; [1]): 8 mg/L (≈ 5.39 µM)
MIC Enterococcus faecium (GC 4557) (Enterococcus sp.; [1]): 8 mg/L (≈ 5.39 µM)
MIC Enterococcus faecalis (ATCC 29212) (Enterococcus sp.; strain ATCC 29212): 8 mg/L (≈ 5.39 µM)
MIC Enterococcus faecalis (GC 2242) (Enterococcus sp.; strain GC 2242): 4 mg/L (≈ 2.69 µM)
MIC Enterococcus faecium (GC 2243) (Enterococcus sp.; strain GC 2243): 8 mg/L (≈ 5.39 µM)
MIC Enterococcus faecalis (GC 2691) (Enterococcus sp.; strain GC 2691): 4 mg/L (≈ 2.69 µM)
MIC Enterococcus faecalis (GC 3059) (Enterococcus sp.; strain GC 3059): 8 mg/L (≈ 5.39 µM)
MIC Enterococcus faecalis (GC 4552) (Enterococcus sp.; strain GC 4552): 8 mg/L (≈ 5.39 µM)
MIC Enterococcus faecalis (GC 4553) (Enterococcus sp.; strain GC 4553): 4 mg/L (≈ 2.69 µM)
MIC Enterococcus faecalis (GC 4554) (Enterococcus sp.; strain GC 4554): 4 mg/L (≈ 2.69 µM)
MIC Enterococcus faecium (GC 4556) (Enterococcus sp.; strain GC 4556): 8 mg/L (≈ 5.39 µM)
MIC Enterococcus faecium (GC 4557) (Enterococcus sp.; strain GC 4557): 8 mg/L (≈ 5.39 µM)
MIC Enterococcus avium (GC 4558) (Enterococcus sp.; strain GC 4558): 4 mg/L (≈ 2.69 µM)
MIC Enterococcus faecalis (GC 6189) (Enterococcus sp.; strain GC 6189): 2 mg/L (≈ 1.35 µM)
MIC Escherichia coli (ATCC 25922) (Escherichia coli; strain ATCC 25922): >64 mg/L
MIC Escherichia coli (GC 4559) (Escherichia coli; strain GC 4559): >64 mg/L
MIC Escherichi coli (GC 4560) (Escherichia coli; strain GC 4560): 2 mg/L (≈ 1.35 µM)
MIC Coagulase Negative Staphylococcus (GC 4547) (Staphylococcus sp.; 5×10^5 CFU/mL): 8 mg/L (≈ 5.39 µM)
MIC Coagulase Negative Staphylococcus (GC 4548) (Staphylococcus sp.; 5×10^5 CFU/mL): 2 mg/L (≈ 1.35 µM)
MIC Coagulase Negative Staphylococcus (GC 4549) (Staphylococcus sp.; 5×10^5 CFU/mL): 2 mg/L (≈ 1.35 µM)
MIC Coagulase Negative Staphylococcus (GC 4551) (Staphylococcus sp.; 5×10^5 CFU/mL): 4 mg/L (≈ 2.69 µM)
MIC Coagulase Negative Staphylococcus (GC 6257) (Staphylococcus sp.; 5×10^5 CFU/mL): 2 mg/L (≈ 1.35 µM)
MIC Staphylococcus aureus (ATCC 29213) (Staphylococcus sp.; 5×10^5 CFU/mL): 4 mg/L (≈ 2.69 µM)
MIC Staphylococcus aureus (GC 1131) (Staphylococcus sp.; 5×10^5 CFU/mL): 8 mg/L (≈ 5.39 µM)
MIC Staphylococcus aureus (GC 3051) (Staphylococcus sp.; 5×10^5 CFU/mL): 4 mg/L (≈ 2.69 µM)
MIC Staphylococcus aureus (GC 3053) (Staphylococcus sp.; 5×10^5 CFU/mL): 4 mg/L (≈ 2.69 µM)
MIC Staphylococcus aureus (GC 4541) (Staphylococcus sp.; 5×10^5 CFU/mL): 4 mg/L (≈ 2.69 µM)
MIC Staphylococcus aureus (GC 4542) (Staphylococcus sp.; 5×10^5 CFU/mL): 2 mg/L (≈ 1.35 µM)
MIC Staphylococcus aureus (GC 4544) (Staphylococcus sp.; 5×10^5 CFU/mL): 8 mg/L (≈ 5.39 µM)
MIC Staphylococcus aureus (GC 4545) (Staphylococcus sp.; 5×10^5 CFU/mL): 4 mg/L (≈ 2.69 µM)
MIC Staphylococcus aureus-SMITH (GC 4543) (Staphylococcus sp.; 5×10^5 CFU/mL): 8 mg/L (≈ 5.39 µM)
MIC Staphylococcus haemolyticus (GC 4546) (Staphylococcus sp.; 5×10^5 CFU/mL): 8 mg/L (≈ 5.39 µM)
MIC Staphylococcus aureus (ATCC 29213) (Staphylococcus sp.; strain ATCC 29213): 4 mg/L (≈ 2.69 µM)
MIC Staphylococcus aureus (GC 1131) (Staphylococcus sp.; strain GC 1131): 8 mg/L (≈ 5.39 µM)
MIC Staphylococcus aureus (GC 3051) (Staphylococcus sp.; strain GC 3051): 4 mg/L (≈ 2.69 µM)
MIC Staphylococcus aureus (GC 3053) (Staphylococcus sp.; strain GC 3053): 4 mg/L (≈ 2.69 µM)
MIC Staphylococcus aureus (GC 4541) (Staphylococcus sp.; strain GC 4541): 4 mg/L (≈ 2.69 µM)
MIC Staphylococcus aureus (GC 4542) (Staphylococcus sp.; strain GC 4542): 2 mg/L (≈ 1.35 µM)
MIC Staphylococcus aureus (GC 4544) (Staphylococcus sp.; strain GC 4544): 8 mg/L (≈ 5.39 µM)
MIC Staphylococcus aureus (GC 4545) (Staphylococcus sp.; strain GC 4545): 4 mg/L (≈ 2.69 µM)
MIC Streptococcus agalactiae (GC 4564) (Streptococcus sp.; [1]): <0.06 mg/L
MIC Streptococcus pneumoniae (ATCC 6301) (Streptococcus sp.; [1]): <0.06 mg/L
MIC Streptococcus pneumoniae (GC 1894) (Streptococcus sp.; [1]): <0.06 mg/L
MIC Streptococcus pneumoniae (GC 4565) (Streptococcus sp.; [1]): <0.06 mg/L
MIC Streptococcus pyogenes (GC 4563) (Streptococcus sp.; [1]): 0.12 mg/L (≈ 0.0808 µM)
MIC Streptococcus pneumoniae (ATCC 6301) (Streptococcus sp.; strain ATCC 6301): <0.06 mg/L
MIC Streptococcus pneumoniae (GC 1894) (Streptococcus sp.; strain GC 1894): <0.06 mg/L
MIC Streptococcus pyogenes (GC 4563) (Streptococcus sp.; strain GC 4563): 0.12 mg/L (≈ 0.0808 µM)
MIC Streptococcus agalactiae (GC 4564) (Streptococcus sp.; strain GC 4564): <0.06 mg/L
MIC Streptococcus pneumoniae (GC 4565) (Streptococcus sp.; strain GC 4565): <0.06 mg/L
